Reference: ChEMBL document CHEMBL5131389, “PSMA-targeted small-molecule docetaxel conjugate: Synthesis and preclinical evaluation” (Eur J Med Chem, 2022)
≈ marks a conversion by molar mass, not a printed value. Where “and” joins values, the source holds several entries; their conditions need not be identical. Equal values may be shown once. Calls of active or inactive are those of the source. No cut-off for these calls is given here.

Key:
PC-3 [1] = assay: Cytotoxicity against human PC-3 cells assessed as reduction in cell viability measured after 72 hrs by MTT assay; type: functional
CWR22R [2] = assay: Cytotoxicity against human 22Rv1 cells assessed as reduction in cell viability measured after 72 hrs by MTT assay; type: functional
[3] = Selectivity ratio of CC50 for cytotoxicity against human PC-3 cells to CC50 for cytotoxicity against human 22Rv1 cells
[4] = target: Glutamate carboxypeptidase 2 (Homo sapiens, UniProt Q04609); assay: Inhibition of GCPII (unknown origin)
[5] = Chronic toxicity in rat assessed as increase in relative mass of adrenal gland administered intravenously as pluronic F127 formulation at 4 intervals for 21 days and observed 3 weeks post last injection relative to control; type: tissue-based; conditions: in vivo, iv, 2544 h, time 106 day
CWR22R [6] = assay: Effect on cell stiffness in human 22Rv1 cells assessed as increase in young's modulus at 1 nM measured after 1 hr by topography based scanning ion-conductance microscopic analysis; type: functional
[7] = Toxicity in BALB/c nude mouse xenografted with human DU-145 cells assessed as animal death at 12.4 to 24.8 mg/kg, ip measured on day 8; type: organism-based; conditions: in vivo, dose 12.4-24.8 mg/kg, time 8 day, read-out: Activity
[8] = Chronic toxicity in rat assessed as increase in relative lung mass administered intravenously as pluronic F127 formulation for 4 intervals of 21 days and observed 3 weeks post last injection relative to control; conditions: in vivo, iv, 2544 h, time 106 day
[9] = Chronic toxicity in rat assessed as hair loss administered intravenously as pluronic F127 formulation at 4 intervals for 21 days and observed 3 weeks post last injection; conditions: in vivo, iv, 2544 h, time 106 day
[10] = Chronic toxicity in rat assessed as increase in relative mass of liver administered intravenously as pluronic F127 formulation at 4 intervals for 21 days and observed 3 weeks post last injection relative to control; type: tissue-based; conditions: in vivo, iv, 2544 h, time 106 day
[11] = Chronic toxicity in rat assessed as reduction in grooming frequency at 15.16 mg/kg, iv administered as pluronic F127 formulation at 4 intervals for 21 days and observed 3 weeks post last injection; type: organism-based; conditions: in vivo, 2544 h, time 106 day
[12] = Chronic toxicity in rat assessed as change in erythrocytes in blood administered intravenously as pluronic F127 formulation at 4 intervals for 21 days and observed 3 weeks post last injection relative to control; type: cell-based; conditions: iv, 2544 h, time 106 day
[13] = Aqueous solubility of compound; type: physicochemical
[14] = Chronic toxicity in rat assessed as change in volume of excreted urine administered intravenously as pluronic F127 formulation at 4 intervals for 21 days and observed 3 weeks post last injection relative to control; conditions: in vivo, iv, 2544 h, time 106 day
[15] = Chronic toxicity in rat assessed as increase in relative mass of stomach administered intravenously as pluronic F127 formulation at 4 intervals for 21 days and observed 3 weeks post last injection relative to control; type: tissue-based; conditions: in vivo, iv, 2544 h, time 106 day
[16] = Chronic toxicity in rat assessed as increase in relative brain mass administered intravenously as pluronic F127 formulation at 4 intervals for 21 days and observed 3 weeks post last injection relative to control; type: tissue-based; conditions: in vivo, iv, 2544 h, time 106 day
DU-145 [17] = assay: Antitumor activity against human DU-145 cells xenografted in BALB/c nude mouse assessed as tumor growth inhibition at 24.8 mg/kg, ip measured upto 30 days; type: functional; conditions: DU-145, 720 h, time <= 30 day, read-out: TGI
[18] = Chronic toxicity in rat assessed as change in relative heart mass administered intravenously as pluronic F127 formulation at 4 intervals for 21 days and observed 3 weeks post last injection; type: tissue-based; conditions: in vivo, iv, 2544 h, time 106 day
[19] = Chronic toxicity in rat assessed as change in alkaline phosphatase level at […], iv administered as pluronic F127 formulation at 4 intervals for 21 days and observed 3 weeks post last injection relative to control; type: organism-based; conditions: in vivo, 2544 h, time 106 day
[20] = Chronic toxicity in rat assessed as decrease in relative mass of testes administered intravenously as pluronic F127 formulation at 4 intervals for 21 days and observed 3 weeks post last injection relative to control; conditions: in vivo, iv, 2544 h, time 106 day
PC-3 [21] = assay: Induction of ROS generation in human PC-3 cells at 800 mV holding potential measured after 1 hr by patch clamp amplifier based optical inverted microscopic analysis; type: functional, cell-based
[22] = Chronic toxicity in rat assessed as increase in relative kidney weight administered intravenously as pluronic F127 formulation at 4 intervals for 21 days and observed 3 weeks post last injection; type: tissue-based; conditions: in vivo, iv, 2544 h, time 106 day
DU-145 [23] = assay: Antitumor activity against human DU-145 cells xenografted in BALB/c nude mouse assessed as tumor growth inhibition at 12.4 mg/kg, ip measured upto 30 days; type: functional; conditions: DU-145, 720 h, time <= 30 day, read-out: TGI
DU-145 [24] = assay: Antitumor activity against human DU-145 cells xenografted in BALB/c nude mouse assessed as reduction in tumor growth index at 12.4 mg/kg, ip measured upto 30 days (reference value: 799 +/- 121.8 %); type: functional; parameters: scale not given: the % may be the effect or the level left; conditions: time <= 30 day
[25] = Toxicity in Balb/c nude mouse xenografted with human 22Rv1 cells assessed as animal death at 10 mg/kg, ip measured upto 30 days; type: organism-based, CWR22R; conditions: in vivo, 720 h, time < 30 day
[26] = Chronic toxicity in rat assessed as neurological disorder administered intravenously as pluronic F127 formulation at 4 intervals for 21 days and observed 3 weeks post last injection; conditions: in vivo, iv, 2544 h, time 106 day
[27] = Chronic toxicity in rat assessed as increase in relative spleen mass administered intravenously as pluronic F127 formulation at 4 intervals for 21 days and observed 3 weeks post last injection relative to control; type: tissue-based; conditions: in vivo, iv, 2544 h, time 106 day
[28] = Acute toxicity in iv dosed ICR mouse assessed as lethal dose; type: organism-based; conditions: in vivo
DU-145 [29] = assay: Antitumor activity against human DU-145 cells xenografted in BALB/c nude mouse assessed as reduction in tumor growth index at 24.8 mg/kg, ip measured upto 30 days (reference value: 799 +/- 121.8 %); type: functional; parameters: scale not given: the % may be the effect or the level left; conditions: time <= 30 day
[30] = Chronic toxicity in rat assessed as reduction in getting up frequency at 15.16 mg/kg, iv administered as pluronic F127 formulation at 4 intervals for 21 days and observed 3 weeks post last injection; type: organism-based; conditions: in vivo, 2544 h, time 106 day
CWR22R [31] = assay: Antitumor activity against human 22Rv1 cells xenografted in Balb/c nude mouse assessed as tumor growth inhibition at 10 mg/kg, ip administered daily for 5 days and measured at day 34 relative to control; type: functional; parameters: scale not given: the % may be the effect or the level left; conditions: time 34 day
PC-3 [32] = assay: Effect on cell stiffness in human PC-3 cells assessed as increase in young's modulus at 1 nM measured after 1 hr by topography based scanning ion-conductance microscopic analysis; type: functional
[33] = Chronic toxicity in Soviet Chinchilla rabbit assessed as animal death administered intravenously as pluronic F127 formulation at 4 intervals for 21 days and observed one week post first injection; parameters: species or system Oryctolagus cuniculus; conditions: in vivo, iv, 168 h, time 7 day
[34] = Chronic toxicity in rat assessed as increase in relative mass of pancreas administered intravenously as pluronic F127 formulation at 4 intervals for 21 days and observed 3 weeks post last injection relative to control; type: tissue-based; conditions: in vivo, iv, 2544 h, time 106 day
[35] = Chronic toxicity in rat assessed as increase in creatinine concentration at […], iv administered as pluronic F127 formulation at 4 intervals for 21 days and observed 3 weeks post last injection relative to control; type: organism-based; conditions: in vivo, 2544 h, time 106 day

Chain of Glutamate carboxypeptidase 2 (Q04609 whole entry): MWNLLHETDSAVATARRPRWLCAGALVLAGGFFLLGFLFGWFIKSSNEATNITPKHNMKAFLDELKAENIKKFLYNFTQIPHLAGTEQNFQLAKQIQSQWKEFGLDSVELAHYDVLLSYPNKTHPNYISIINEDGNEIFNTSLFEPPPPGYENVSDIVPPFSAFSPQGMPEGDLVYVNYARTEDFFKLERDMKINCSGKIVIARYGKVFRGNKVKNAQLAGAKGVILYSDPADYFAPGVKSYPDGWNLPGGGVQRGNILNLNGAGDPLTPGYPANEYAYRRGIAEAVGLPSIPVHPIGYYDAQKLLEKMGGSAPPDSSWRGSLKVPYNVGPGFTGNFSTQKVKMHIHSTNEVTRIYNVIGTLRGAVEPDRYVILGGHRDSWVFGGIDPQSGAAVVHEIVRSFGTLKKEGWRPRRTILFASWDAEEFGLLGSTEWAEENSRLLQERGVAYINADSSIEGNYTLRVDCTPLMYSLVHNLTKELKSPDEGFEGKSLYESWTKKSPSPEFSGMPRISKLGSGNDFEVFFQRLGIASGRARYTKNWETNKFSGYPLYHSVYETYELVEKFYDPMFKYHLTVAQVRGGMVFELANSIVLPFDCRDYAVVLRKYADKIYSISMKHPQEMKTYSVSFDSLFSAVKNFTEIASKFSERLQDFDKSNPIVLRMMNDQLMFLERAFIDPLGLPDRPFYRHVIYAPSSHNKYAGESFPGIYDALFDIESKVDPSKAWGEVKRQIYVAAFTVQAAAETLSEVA

Compound CC(=O)O[C@@]12CO[C@@H]1C[C@H](O)[C@@]1(C)C(=O)[C@H](O)C3=C(C)[C@@H](OC(=O)[C@H](OC(=O)CCCc4cn(CCCNC(=O)[C@@H](Cc5ccccc5)NC(=O)[C@@H](Cc5ccccc5)NC(=O)CCC(=O)NCCCCCC(=O)N(CCCC[C@H](NC(=O)N[C@@H](CCC(=O)O)C(=O)O)C(=O)O)Cc5ccc(Cl)c(F)c5)nn4)[C@@H](NC(=O)OC(C)(C)C)c4ccccc4)C[C@@](O)([C@@H](OC(=O)c4ccccc4)[C@H]21)C3(C)C has a CC50 (PC-3 [1]) of 52 nM, a CC50 (CWR22R [2]) of 29 nM and a Selectivity ratio [3] of 1.8.

Work on CC(=O)O[C@@]12CO[C@@H]1C[C@H](O)[C@@]1(C)C(=O)[C@H](O)C3=C(C)[C@@H](OC(=O)[C@H](OC(=O)CCCc4cn(CCCNC(=O)[C@H](Cc5ccccc5)NC(=O)[C@H](Cc5ccccc5)NC(=O)CCC(=O)NCCCCCC(=O)N(CCCC[C@H](NC(=O)N[C@@H](CCC(=O)O)C(=O)O)C(=O)O)Cc5ccccc5)nn4)[C@@H](NC(=O)OC(C)(C)C)c4ccccc4)C[C@@](O)([C@@H](OC(=O)c4ccccc4)[C@H]21)C3(C)C (single isomer, unassigned) yielded a CC50 (PC-3 [1]) of 20 nM, a CC50 (CWR22R [2]) of 13 nM and a Selectivity ratio [3] of 1.5.

Compound [N-]=[N+]=NCCCNC(=O)[C@H](Cc1ccc(O)cc1)NC(=O)[C@H](Cc1ccccc1)NC(=O)CCC(=O)NCCCCCC(=O)N(CCCC[C@H](NC(=O)N[C@@H](CCC(=O)O)C(=O)O)C(=O)O)Cc1cccc(Cl)c1 has an IC50 [4] of 9 nM.

For CC(=O)O[C@@]12CO[C@@H]1C[C@H](O)[C@@]1(C)C(=O)[C@H](O)C3=C(C)[C@@H](OC(=O)[C@H](O)[C@@H](NC(=O)OC(C)(C)C)c4ccccc4)C[C@@](O)([C@@H](OC(=O)c4ccccc4)[C@H]21)C3(C)C [DOCETAXEL ANHYDROUS], the Activity [5] was “Toxic”, the Activity (CWR22R [6]) was “Active” and the mortality at 192 h [7] was 100%. The Activity [8] was “Toxic”, the Activity [9] was “Toxic” and the Activity [10] was “Toxic”. The Activity [11] was “Toxic”, the Activity [12] was “Non-Toxic” and the solubility [13] was 3 µg/mL (≈ 3.71 µM). The Activity [14] was “Toxic”, the Activity [15] was “Toxic” and the Activity [16] was “Toxic”. For the same compound, the inhibition in vivo at 24.8 mg/kg (DU-145 [17]) was 73.5%, the Activity [18] was “Non-Toxic” and the Activity [19] was “Toxic”. For the same compound, the Activity [20] was “Non-Toxic”, the Activity (PC-3 [21]) was “Active” and the Activity [22] was “Toxic”. It also gave an inhibition in vivo at 12.4 mg/kg (DU-145 [23]) of 47.1%, an Activity (DU-145 [24]) of 261.3% and a CC50 (PC-3 [1]) of 1 nM. For the same compound, the Activity [25] was “Toxic”, the Activity [26] was “Toxic” and the Activity [27] was “Non-Toxic”. The LD50 [28] was 138 mg/kg and 171 µmol/kg, the CC50 (CWR22R [2]) was 1 nM and the Activity (DU-145 [29]) was 84.8%. For the same compound, the Activity [30] was “Toxic”, the Activity (CWR22R [31]) was 88% and the Activity (PC-3 [32]) was “Active”. The Activity [33] was “Toxic”, the Activity [34] was “Toxic” and the Activity [35] was “Toxic”. For the same compound, the Selectivity ratio [3] was 1.
